These are literature values, as cited in patent US10610500B2, “Chemosensory receptor ligand-based therapies” (Anji Pharma (US) LLC, priority 2011, dated 2020).

The first series deals with gut hormones. Conditions: humans.
For the molecule `C=C1C[C@@]23CC[C@H]4[C@@](C)(CCC[C@@]4(C)C(=O)O[C@@H]4O[C@H](CO)[C@@H](O)[C@H](O)[C@H]4O)[C@@H]2CC[C@]1(O[C@@H]1O[C@H](CO)[C@@H](O)[C@H](O[C@@H]2O[C@H](CO)[C@@H](O)[C@H](O)[C@H]2O)[C@H]1O[C@@H]1O[C@H](CO)[C@@H](O)[C@H](O)[C@H]1O)C3` [Rebaudioside A], the “gut hormones in the circulation” value was “no alterations”.

For another series, the system named is L cells located in the gut. Conditions: administration of metformin.
For the molecule `CN(C)C(=N)N=C(N)N` [metformin], the “release of GLP-1 from the L cells” value is given as “increases”.

Another series addresses T1, sweet receptor (Homo sapiens, UniProt Q7RTX0+Q8TE23).
T1 sequence (Q8TE23 20-839): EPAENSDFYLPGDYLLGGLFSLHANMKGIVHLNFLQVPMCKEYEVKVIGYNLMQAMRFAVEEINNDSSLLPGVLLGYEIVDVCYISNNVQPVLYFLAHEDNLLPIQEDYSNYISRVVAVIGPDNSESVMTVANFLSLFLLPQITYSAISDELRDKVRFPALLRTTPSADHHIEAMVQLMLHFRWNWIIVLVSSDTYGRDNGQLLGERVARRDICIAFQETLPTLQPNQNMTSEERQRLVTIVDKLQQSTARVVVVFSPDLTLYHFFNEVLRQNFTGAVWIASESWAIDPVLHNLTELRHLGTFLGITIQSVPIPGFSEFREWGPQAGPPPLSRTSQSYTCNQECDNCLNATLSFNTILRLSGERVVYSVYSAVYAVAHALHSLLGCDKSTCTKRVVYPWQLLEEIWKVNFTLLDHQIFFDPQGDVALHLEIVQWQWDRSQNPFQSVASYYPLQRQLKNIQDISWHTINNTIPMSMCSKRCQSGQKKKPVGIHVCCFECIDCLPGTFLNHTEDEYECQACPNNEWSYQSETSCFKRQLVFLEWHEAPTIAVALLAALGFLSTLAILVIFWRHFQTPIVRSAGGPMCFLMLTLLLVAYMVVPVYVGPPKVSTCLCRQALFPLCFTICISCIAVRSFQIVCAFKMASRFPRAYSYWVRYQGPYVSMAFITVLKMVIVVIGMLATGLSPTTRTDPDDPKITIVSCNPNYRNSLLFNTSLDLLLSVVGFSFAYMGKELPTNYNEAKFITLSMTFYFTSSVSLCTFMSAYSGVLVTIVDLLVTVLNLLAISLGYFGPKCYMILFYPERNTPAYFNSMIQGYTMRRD
T1 sequence (Q7RTX0 21-852): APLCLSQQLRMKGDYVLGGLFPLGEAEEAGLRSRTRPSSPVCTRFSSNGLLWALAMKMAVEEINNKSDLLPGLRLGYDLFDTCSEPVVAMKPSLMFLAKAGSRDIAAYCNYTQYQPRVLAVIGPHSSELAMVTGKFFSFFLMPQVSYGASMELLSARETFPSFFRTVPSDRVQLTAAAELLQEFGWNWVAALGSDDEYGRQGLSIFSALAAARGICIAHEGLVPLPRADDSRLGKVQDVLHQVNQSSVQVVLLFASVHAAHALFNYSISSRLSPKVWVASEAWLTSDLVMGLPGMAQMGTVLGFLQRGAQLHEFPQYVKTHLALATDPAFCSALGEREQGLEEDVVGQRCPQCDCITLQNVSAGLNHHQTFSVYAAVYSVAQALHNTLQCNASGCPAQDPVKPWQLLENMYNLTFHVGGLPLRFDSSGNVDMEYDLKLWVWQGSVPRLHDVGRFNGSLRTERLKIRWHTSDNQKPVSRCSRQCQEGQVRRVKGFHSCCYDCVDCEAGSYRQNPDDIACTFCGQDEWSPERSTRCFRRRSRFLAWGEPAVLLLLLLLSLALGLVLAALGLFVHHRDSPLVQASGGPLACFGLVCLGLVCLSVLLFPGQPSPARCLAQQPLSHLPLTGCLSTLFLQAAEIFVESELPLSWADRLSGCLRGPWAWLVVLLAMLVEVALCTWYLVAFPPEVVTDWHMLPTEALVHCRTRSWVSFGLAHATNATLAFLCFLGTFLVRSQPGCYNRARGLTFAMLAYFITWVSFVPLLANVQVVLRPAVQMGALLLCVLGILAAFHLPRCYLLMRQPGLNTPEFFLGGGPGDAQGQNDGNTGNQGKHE
Conditions: relative sweetness on a weight comparison basis to sucrose (=1.0); ranges: relative sweetness varied with the concentration of sucrose.
For the molecule Pterocaryoside A, the Sweetness/potency was 50.

On to `Oc1ccc([C@H]2Oc3c(c(O)cc4c3[C@H]3c5c(O)cc(O)cc5O[C@@](c5ccc(O)cc5)(O4)[C@@H]3O)[C@H](c3c(O)cc(O)c4c3O[C@H](c3ccc(O)cc3)[C@@H](O)C4)[C@H]2O)cc1` [Selligueain A], for which the Sweetness/potency is recorded as 35.

Take `CC1=CC[C@@H]([C@@H](C)[C@H]2CC[C@@]3(C)[C@@H]4CC[C@H]5[C@](C)(C(=O)O)[C@@H](O[C@@H]6O[C@H](CO)[C@@H](O)[C@H](O)[C@H]6O[C@@H]6O[C@H](CO)[C@@H](O)[C@H](O)[C@H]6O)CC[C@@]56C[C@@]46CC[C@]23C)OC1=O` [Abrusoside C]: the Sweetness/potency is listed as 50.

`C=C1C[C@@]23CC[C@H]4[C@@](C)(CCC[C@@]4(C)C(=O)O[C@@H]4O[C@H](CO)[C@@H](O)[C@H](O)[C@H]4O)[C@@H]2CC[C@]1(O[C@@H]1O[C@H](CO)[C@@H](O)[C@H](O)[C@H]1O[C@@H]1O[C@@H](C)[C@H](O)[C@@H](O)[C@H]1O)C3` [Dulcoside A]: the Sweetness/potency is reported as 30.

For the molecule `Oc1cc2c(cc1O)[C@@H]1c3ccc(O)c(O)c3OC[C@]1(O)C2` [Hematoxylin], the Sweetness/potency is 120.

With `C=C1C[C@@]23CC[C@H]4[C@@](C)(CCC[C@@]4(C)C(=O)O[C@@H]4O[C@H](CO)[C@@H](O)[C@H](O)[C@H]4O)[C@@H]2CC[C@]1(O[C@@H]1O[C@H](CO)[C@@H](O)[C@H](O)[C@H]1O[C@@H]1O[C@H](CO)[C@@H](O)[C@H](O)[C@H]1O)C3` [Stevioside], the Sweetness/potency was 210.

For the molecule `CC1(C)[C@@H](O[C@H]2O[C@H](C(=O)O)[C@@H](O)[C@H](O)[C@H]2O[C@@H]2OC[C@H](O)[C@H](O)[C@H]2O)CC[C@]2(C)[C@H]3C(=O)C=C4[C@@H]5C[C@@](C)(C(=O)O)CC[C@]5(C)CC[C@@]4(C)[C@]3(C)CC[C@@H]12` [Araboglycyrrhizin], the Sweetness/potency is reported as 150.

On to Thaumatin, for which the Sweetness/potency is reported as 1,600.

In the case of `COc1c(O)cc2c(c1O)C(=O)[C@H](O)[C@@H](c1ccc(O)c(O)c1)O2` [(2R,3R)-2,3-Dihydro-5,7,3',4'-tetrahydroxy-6-methoxyflavonol], the Sweetness/potency is recorded as 15.

In the case of `CC(=O)O[C@H]1C(=O)c2c(O)cc(O)cc2O[C@@H]1c1ccc(O)c(O)c1` [(2R,3R)-Dihydroquercetin 3-O-acetate], the Sweetness/potency is 80.

On to `C=C(C)C1CCC2(C)C(CC(OC3OCC(O)C(O)C3O)C3C(C(C)(O)C/C=C/C(C)(C)O)CCC32C)C1(C)CCC(=O)O` (stereo not shown) [Pterocaryoside B], for which the Sweetness/potency is given as 100.
